The assay addresses histone deacetylase activity (HeLa nuclear extract). Description: HDAC fluorescent activity assay (Biomol Fluor de Lys), HeLa nuclear extract. It counts as biochemical. To be noted: HeLa nuclear extract as HDAC source; Fluor de Lys substrate; IC50 range; read-out: Inhibitor Activity versus HDAC. The protocol:
The ability of compounds of Examples 1 to 17 to inhibit histone deacetylase activities was measured using the commercially available HDAC fluorescent activity assay from Biomol. In brief, the Fluor de Lys™ substrate, a lysine with an epsilon-amino acetylation, is incubated with the source of histone deacetylase activity (HeLa nuclear extract) in the presence or absence of inhibitor. Deacetylation of the substrate sensitises the substrate to Fluor de Lys™ developer, which generates a fluorophore. Thus, incubation of the substrate with a source of HDAC activity results in an increase in signal that is diminished in the presence of an HDAC inhibitor.
Data are expressed as a percentage of the control, measured in the absence of inhibitor, with background signal being subtracted from all samples, as follows:— % activity=((S^i−B)/(S^o−B))×100 where S^i is the signal in the presence of substrate, enzyme and inhibitor, S^o is the signal in the presence of substrate, enzyme and the vehicle in which the inhibitor is dissolved, and B is the background signal measured in the absence of enzyme.
IC50 values were determined by non-linear regression analysis, after fitting the results of eight data points to the equation for sigmoidal dose response with variable slope (% activity against log concentration of compound), using Graphpad Prism software.
Histone deacetylase activity from crude nuclear extract derived from HeLa cells was used for screening. The preparation, purchased from 4C (Seneffe, Belgium), was prepared from HeLa cells harvested whilst in exponential growth phase. The nuclear extract is prepared according to Dignam J D 1983 Nucl. Acid. Res. 11, 1475-1489, snap frozen in liquid nitrogen and stored at −80° C. The final buffer composition was 20 mM Hepes, 100 mM KCl, 0.2 mM EDTA, 0.5 mM DTT, 0.2 mM PMSF and 20% (v/v) glycerol.

For the compound `O=C(CCCCCC(=O)N1CCc2c([nH]c3ccccc23)C1)NO` [Example 2], the IC50 was < 330 nM.

Turning to `O=C(CCCCCCC(=O)N1CCc2c([nH]c3ccccc23)C1C(F)(F)F)NO` (stereo not shown) [Example 9], the IC50 is < 330 nM.

For `COc1ccc2[nH]c3c(c2c1)CCN(C(=O)CCCCCC(=O)NO)C3` [Example 6], the IC50 was < 330 nM.

In the case of `COC(=O)[C@H]1Cc2c([nH]c3ccccc23)CN1C(=O)CCCCCC(=O)NO` [Example 11], the IC50 lay within 330 to 1000 nM. Then `O=C(CCCCCC(=O)N1CCc2c([nH]c3ccccc23)C1C(F)(F)F)NO` (stereo not shown) [Example 8], with 330 to 1000 nM; and `O=C(CCCCCC(=O)N1Cc2[nH]c3ccccc3c2C[C@@H]1C(=O)O)NO` [Example 15], with 330 to 1000 nM. The same measure for `COc1ccc2[nH]c3c(c2c1)CCN(C(=O)CCCCCCC(=O)NO)C3` [Example 3]: < 330 nM; for `COC(=O)[C@H]1Cc2c([nH]c3ccccc23)CN1C(=O)CCCCCCCC(=O)NO` [Example 12]: 330 to 1000 nM. The same measure for `O=C(CCCCCCCC(=O)N1CCc2c([nH]c3ccccc23)C1C(F)(F)F)NO` (stereo not shown) [Example 10]: < 330 nM. As to `COc1ccc2[nH]c3c(c2c1)CCN(C(=O)CCCCCCCC(=O)NO)C3` [Example 7], the IC50 was < 330 nM. With `O=C(CCCCCCC(=O)N1CCc2c([nH]c3ccccc23)C12CCCCC2)NO` [Example 14], the IC50 was < 330 nM.

For the compound `COC(=O)[C@H]1Cc2c([nH]c3ccccc23)CN1C(=O)CCCCCCC(=O)NO` [Example 4], the IC50 is < 330 nM. Then `O=C(CCCCCCCC(=O)N1Cc2[nH]c3ccccc3c2C[C@@H]1C(=O)O)NO` [Example 17], with 330 to 1000 nM; and `O=C(CCCCCC(=O)N1CCc2c([nH]c3ccccc23)C12CCCCC2)NO` [Example 13], with 330 to 1000 nM. The same measure for `O=C(CCCCCCC(=O)N1Cc2[nH]c3ccccc3c2C[C@@H]1C(=O)O)NO` [Example 16]: < 330 nM.

Consider `O=C(CCCCCCCC(=O)N1CCc2c([nH]c3ccccc23)C1)NO` [Example 5], for which the IC50 was < 330 nM.
